Source: patent US20160081936A1 (MURRAY AND POOLE ENTERPRISES LIMITED, priority 2013, published 2016)

Key:
[1] = tested on: patients with a first episode of recurrent pericarditis; conditions: conventional treatment with aspirin alone, or the same plus colchicine 0.5-1.0 mg/d for 6 months; cited from earlier work
[2] = tested on: patients with a first episode of acute pericarditis; conditions: conventional treatment with aspirin, or the same plus colchicine 0.5 to 1.0 mg/day for 3 months; p=0.004; cited from earlier work
[3] = tested on: patients with stable coronary disease; conditions: 0.5 mg/day in addition to statins and other standard secondary prevention therapies; Nidorf et al., JACC 2013; cited from earlier work
[4] = tested on: patients with stable coronary disease; test: LoDoCo trial: colchicine 0.5 mg/day added to standard secondary prevention therapy; format: in vivo, human
Protocol: This study is described in PCT/AU2013/001261 and is hereby incorporated in its entirety by reference.
All outcomes were evaluated by an experienced adjudicator blinded to the treatment allocation.
Patients with a history of bypass surgery were only eligible if they had undergone bypass surgery more than 10 years before, or had angiographic evidence of graft failure or had undergone stenting since their bypass surgery. All patients signed informed consent before randomization.
The randomization sequence was computer generated, kept concealed from the investigators at all times and was managed by a research assistant who had no involvement in the evaluation or management of study patients. […] Patients who were intolerant to therapy remained in the study, and were followed in the usual manner and included in the primary intention to treat analysis.
The drug was dispensed by their usual chemist, and if requested, patients were reimbursed for the cost of these scripts. All other treatments were continued as usual.
Patient compliance with treatment and outcome data were collected at routine follow up visits and at the time of any unplanned hospital admission. An acute coronary syndrome (ACS) was defined as either (a) Acute Myocardial Infarction (AMI), as evidenced by acute ischemic chest pain associated with a rise in serum troponin above the upper limit of normal or (b) Unstable Angina (UA), as evidenced by a recent acceleration of the patient's angina unassociated with a rise in serum troponin but associated with angiographic evidence of a change in the patient's coronary anatomy. (Unstable Angina Braunwald classification types IB and IIB). The ACS was characterized as being stent-related if there was evidence of significant in-stent stenosis or acute stent thrombosis. Out of Hospital Cardiac Arrest was defined as either a sudden death as evidenced on the patient's death certificate, or a non-fatal out of hospital cardiac arrest, defined as a recovery from sudden collapse associated with documented asystole, ventricular tachycardia or ventricular fibrillation. Noncardioembolic ischemic stroke was defined as CT or MRI proven ischemic stroke adjudged by the treating neurologist as not being due to atrial fibrillation or intracranial hemorrhage.
The primary efficacy outcome was the composite, ACS, fatal or non-fatal out of hospital cardiac arrest or non-cardio-embolic ischemic stroke. Secondary outcomes were (a) individual components of the primary outcome, and (b) the components of ACS unrelated to stent disease.
The pre-specified study duration was a minimum follow up of two years in all patients. Accordingly the study was closed on May 31, 2012. During May, all living patients were contacted by phone to collect compliance and outcome data from the last date of follow-up.
Summary statistics, including mean and standard deviation were calculated for all baseline characteristics by treatment arm. All time to event outcomes were calculated in days by subtracting the date of randomization from either: (1) the date of event or death; or (2) the trial termination date for those patients not experiencing the defined event. As pre-specified, the primary efficacy analysis was based on the intention-to-treat principle. The intention-to-treat analysis included all randomized subjects and all events during the time from randomization to the trial termination. Trial termination date was fixed as May 31, 2012. A secondary pre-specified on-treatment analysis was also performed, based on patients who were both tolerant and compliant to therapy beyond the first month of randomization.
The time-to-first-event for all outcomes is presented using a Kaplan-Meier plot. […] The secondary outcomes were analysed similarly.

Structure (SMILES) | recurrence rate, actuarial rates at 18 months [1] | recurrence rate at 18 months [2] | prevention of cardiovascular events in patients with stable coronary disease [3] | deaths ([4]; colchicine group (282), all of non-cardiac causes, 10 in control group) | primary outcome, number needed to treat ([4]; intention to treat) | ACS unrelated to stent disease associated with UA, patients ([4]; intention to treat, 0.5 mg/day) | ACS unrelated to stent disease associated with an AMI, patients ([4]; intention to treat, 0.5 mg/day) | patients presenting with an ACS ([4]; intention to treat, 0.5 mg/day) | patients presenting with an ACS unrelated to stent disease ([4]; intention to treat, 0.5 mg/day) | primary outcome (composite of ACS, fatal or non-fatal out of hospital cardiac arrest or non-cardio-embolic ischemic stroke), patients with event ([4]; intention to treat, 0.5 mg/day, median follow up 36 months) | events in patients compliant and tolerant to therapy beyond the first month ([4]; on-treatment analysis, 0.5 mg/day) | out of hospital cardiac arrest and non-cardio-embolic ischemic stroke ([4]; treatment group vs control)
CC(=O)Oc1ccccc1C(=O)O [aspirin] | 50.6% | 32.3% |  |  |  |  |  |  |  |  |  | 
COc1cc2c(c(OC)c1OC)-c1ccc(OC)c(=O)cc1[C@@H](NC(C)=O)CC2 [colchicine, N[5,6,7,9-tetrahydro-1,2,3,10-tetratmethoxy 9-oxobenzo[a]heptalen-7-yl],(S)-acetamide] | 24.0% | 10.7% | appeared effective | 4 patients | 11 | 1.8% | 1.4% | 4.6% | 3.2% | 5.3% | 4.5% | reduced
